This note sets out measurements from US20230149409A1, “TREATMENT OF HUMAN PAPILLOMAVIRUS-ASSOCIATED CANCERS BY PD-L1 INHIBITORS” (priority 2021, published 2023).

Test [1] deals with PD-L1 (U2OS/PD-L1 cells, Jurkat-PD-1-SHP cells). The test can be described thus: Src Homology Region 2 Domain-containing Phosphatase (SHP) assay. The note with it: Homo sapiens; U2OS/PD-L1 + Jurkat-PD-1-SHP cells, 2 hours. It is filed as cell-based. The method, then:
Example 1B. Src Homology Region 2 Domain-containing Phosphatase (SHP) Assay
U2OS/PD-L1 cells (DiscoveRx Corporation) were maintained in McCoy’s 5A medium with addition of 10% FBS, 0.25 µg/mL Puromycin. After removing the culture media, the cell medium was replaced with assay medium (RPMI1640 medium with 1% FBS). The U2OS/PD-L1 cells were then added in 384-well black clear bottom assay plate (CELLCOAT® Tissue Culture Plates, Greiner Bio-One) at 5000 cells per well in 20 uL assay medium. Test compounds were prepared by serial dilution in DMSO and 125 nL compound were first transferred to the 384 REMP plate well (Thermofisher) by ECHO liquid handler (Labcyte) followed with addition of 27.5 uL assay medium. 5 µL/well compounds in the assay medium were transferred to the cell plate with 0.05% DMSO in the final assay at 0.25 µM. Jurkat-PD-1-SHP cells (DiscoveRx Corporation) were cultured in RPMI1640 medium supplemented with 10% FBS, 250 µg/mL Hygromycin B, 500 µg/mL G418. After the replacement of culture media with assay medium, 5,000 Jurkat-PD-1-SHP cells in 20 µL were dispensed into each well. The assay plate was incubated at 37° C., 5% CO2 for 2 hours before 2.5 uL PathHunter reagent 1 (DiscoveRx Corporation) were added to each well. The assay plate was shaken for 1 min at 350 rpm in the dark followed with addition of 10 uL PathHunter reagent 2 (DiscoveRx Corporation). Chemiluminescent signal was recorded with TopCount reader (Perkin Elmer) after incubation at room temperature for 1 hour. Wells with DMSO were served as the positive controls and wells containing no cells were used as negative controls. IC50 determination was performed by fitting the curve of percentage of control activity versus the log of the compound concentration using the GraphPad Prism 6.0 software.

The target in test [2] is T1, PD-⅟PD-L1 (recombinant human PD-L1 protein and human PD-1 protein) (Homo sapiens, UniProt Q9NZQ7).
T1 construct: Recombinant human PD-L1 protein (19-238) with a His-tag at the C-terminus; purchased AcroBiosystems PD1-H5229 (PD-L1); PD1-H5257 (PD-1)
The test can be described thus: Homogeneous Time-Resolved Fluorescence (HTRF) PD-1/PD-L1 binding assay. The note with it: 3 nM PD1, 10 nM PD-L1, 25° C., PBS pH 7.4. The procedure: Homogeneous Time-Resolved Fluorescence (HTRF) PD-⅟PD-L1 Binding Assay
The assays were conducted in a standard black 384-well polystyrene plate with a final volume of 20 uL. Inhibitors were first serially diluted in DMSO and then added to the plate wells before the addition of other reaction components. The final concentration of DMSO in the assay was 1%. The assays were carried out at 25° C. in the PBS buffer (pH 7.4) with 0.05% Tween-20 and 0.1% BSA. […] PD-L1 and PD-1 proteins were diluted in the assay buffer and 10 uL was added to the plate well. Plates were centrifuged and proteins were preincubated with inhibitors for 40 minutes. The incubation was followed by the addition of 10 uL of HTRF detection buffer supplemented with Europium cryptate-labeled anti-human IgG (PerkinElmer-AD0212) specific for Fc and anti-His antibody conjugated to SureLight®-Allophycocyanin (APC, PerkinElmer-AD0059H). […] Final concentrations in the assay were - 3 nM PD1, 10 nM PD-L1, 1 nM europium anti-human IgG and 20 nM anti-His-Allophycocyanin. IC50 determination was performed by fitting the curve of percent control activity versus the log of the inhibitor concentration using the GraphPad Prism 5.0 software.
(In general: Time-resolved FRET reads energy transfer from a long-lived donor to a nearby acceptor.)

Test [3] has as its target T2, PD-L1 on CD14+ cells in human whole blood (Homo sapiens, UniProt Q9NZQ7).
T2 construct: Cells were gated on CD14+ (BD Biosciences) and PD-L1 expression determined by mean fluorescence intensity; host or cells: CD14+ cells in normal human whole blood, stimulated with human interferon gamma
The test can be described thus: PD-L1 whole blood internalization assay. It is filed as cell-based. The following applies: 1 ng/mL interferon γ, CD14+ gated, 24 hour. The procedure:
PD-L1 Whole Blood Internalization Assay
To determine PD-L1 internalization in human whole blood, normal human blood (Biological Specialty Corp, Colmar. PA) was incubated in the presence or absence of a concentration range of test compounds and 1 ng/mL human interferon γ (R&D Systems Inc. Minn. MN) in a 96 well “2 mL Assay Block” (Corning, Corning NY) for 18-20 hours at 37 °C. Blood was then stained with PD-L1 (MIH1, eBioscience; or BD Biosciences San Jose, CA), CD14 (Life Technologies, Carlsbad, CA) for 30 minutes in the dark at room temperature. Whole Blood/red cells were lysed/fixed (lysis buffer BD Biosciences) for 5 minutes at 37 °C in the dark and then centrifuged at 1600 RPM for 5 minutes. Cells were resuspended in Stain Buffer (BD Bioscience, San Jose, CA) and transferred into 96 well round bottom plates (Coming). Cells were gated on CD14+ (BD Biosciences) and PD-L1 expression determined by mean fluorescence intensity (MFI) (BD LSRFortessa® X-20). IC50 determination was performed by fitting the curve of compound percent inhibition versus the log of the compound concentration using the GraphPad Prism 7.0 software.

The subject of test [4] is PD-L1 (PD-L1 aAPC/CHO-K1 cells, Jurkat-PD-1-NFAT effector cells). Put plainly: Nuclear Factor of Activated T-cells (NFAT) assay. It is filed as cell-based. The note with it: Cricetulus griseus; PD-L1 aAPC/CHO-K1 + Jurkat-PD-1-NFAT cells, 24 hours. The method, then:
Nuclear Factor of Activated T-cells (NFAT) Assay
PD-L1 aAPC/CHO-K1cells (Promega) were maintained in F-12 medium with addition of 10% FBS, 200 µg/mL Hygromycin B, 250 µg/mL Geneticin (G418). […] The culture media of PD-L1 aAPC/CHO-K1 cells were first replaced with assay medium (RPMI1640 medium with 1% FBS). The PD-L1 aAPC/CHO-K1cells were then added in a white 384-well white clear bottom assay plate (CELLCOAT® Tissue Culture Plates, Greiner Bio-One) at 8000 per well in 10 uL assay medium. […] 5 uL compounds in the assay medium were transferred to the cells with 0.4% DMSO in the final assay at 2 µM. After removing the culture media, 10,000 Jurkat-PD-1-NFAT effector cells in 5 µL assay medium was dispensed into each well. The assay plate was incubated at 37° C., 5% CO2 for 24 hours. […] After 8 minutes incubation at room temperature, luminescence was read at with Pherastar microplate reader (BMG Labtech). The fold of induction (FOI) was calculated based on the ratio of luminescence normalized to the DMSO wells within each assay plate. The maximum percentage of induction was reported based on the ratio between the highest FOI of each compound and the maximum FOI of control compound within each assay plate. Wells with DMSO were served as the negative controls and wells containing control compound with the highest FOI were used as positive controls. EC50 determination was performed by fitting the curve of percent control activity versus the log of the compound concentration using the GraphPad Prism 6.0 software.

T2 sequence (Q9NZQ7 19-290): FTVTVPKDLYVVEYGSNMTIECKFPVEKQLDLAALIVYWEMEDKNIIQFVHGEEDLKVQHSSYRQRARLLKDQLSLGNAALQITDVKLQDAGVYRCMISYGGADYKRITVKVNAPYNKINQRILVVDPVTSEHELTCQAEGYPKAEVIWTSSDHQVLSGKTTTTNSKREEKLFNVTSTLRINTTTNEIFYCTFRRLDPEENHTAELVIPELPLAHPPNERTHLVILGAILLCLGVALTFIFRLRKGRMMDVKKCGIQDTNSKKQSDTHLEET
T1 sequence (Q9NZQ7 19-238): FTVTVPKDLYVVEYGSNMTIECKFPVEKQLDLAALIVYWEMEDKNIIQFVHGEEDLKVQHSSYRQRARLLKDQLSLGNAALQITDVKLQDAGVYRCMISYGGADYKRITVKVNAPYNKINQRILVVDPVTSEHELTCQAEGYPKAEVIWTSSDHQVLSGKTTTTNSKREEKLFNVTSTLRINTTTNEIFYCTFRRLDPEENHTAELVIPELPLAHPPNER

The IC50 is the concentration that inhibits the measured activity by half. What is called EC50 is the midpoint of the concentration-response curve. As for `Cc1c(NC(=O)c2nc3c(n2C)CCN(C)C3)cccc1-c1cccc(NC(=O)c2nc3c(n2C)CCN(C[C@H]2CC[C@@H](C(=O)O)CC2)C3)c1Cl` [Compound 18, cis-4-((2-((2-chloro-3′-(1,5-dimethyl-4,5,6,7-tetrahydro-1H-imidazo[4,5-c]pyfidine-2-caiboxamido)-2′-methyl-[1,1′-biphenyl]-3-yl)carbamoyl)-1-methyl-1,4,6,7-tetrahydro-5H-imidazo[4,5-c]pyridin-5-yl)methyl)cyclohexane-1-carboxylic acid], the figures for the IC50 in test [1], in test [2] and in test [3] were less than 10 nM, less than 10 nM and less than 100 nM, respectively. Also, in test [4], the half-maximal effective concentration (EC50) was less than 100 nM.
With `CN1CCc2c(nc(C(=O)Nc3cccc(-c4cccc(NC(=O)c5nc6c(n5C)CCN(CC[C@H]5CC[C@H](C(=O)O)CC5)C6)c4C#N)c3Cl)n2C)C1` [Compound 19, trans-4-(2-(2-((2′-chloro-2-cyano-3′-(1,5-dimethyl-4,5,6,7-tetrahydro-1H-imidazo[4,5-c]pyridine-2-carboxamido)-[1,1′-biphenyl]-3yl)carbamoyl)-1-methyl-1,4,6,7-tetrahydro-5H-imidazo[4,5-c]pyridin-5-yl)ethyl)cyclohexane-1-carboxylic acid], the IC50 in test [1] was less than 10 nM; in test [2], less than 10 nM; in test [3] it was less than 100 nM. Also, the EC50 in test [4] is less than 100 nM.
As for `CCN(C)CC(=O)N1Cc2nc(-c3cccc(-c4cccc(NC(=O)c5nc6c(n5C)CCN(C[C@H]5CC[C@H](C(=O)O)CC5)C6)c4Cl)c3C)sc2C1` [Compound 20, trans-4-((2-(2-chloro-3′-(5-(2-(ethyl(methyl)amino)acetyl)-5,6-dihydro-4H-pyrrolo[3,4-d]thiazol-2-yl)-2′-methylbipheiryl-3-ylcarbamoyl)-1-methyl-6,7-dihydro-1H-imidazo [4,5-c]pyridin-5 (4H)-yl)methyl)cyclohexane-1-carboxylic acid], the IC50 in test [1] was less than 10 nM; in test [2], less than 10 nM; in test [3] it was less than 500 nM. Moreover, the concentration giving a half-maximal response (EC50) in test [4] is less than 500 nM.
For `CCN(C)CC(=O)N1Cc2nc(-c3cccc(-c4cccc(NC(=O)c5nc6c(n5C)CCN(C[C@H]5CC[C@@H](C(=O)O)CC5)C6)c4Cl)c3C)sc2C1` [Compound 21, cis-4-((2-(2-chloro-3′-(5-(2-(ethyl(methyl)amino)acetyl)-5,6-dihydro-4H-pyrrolo[3,4-d]thiazol-2-yl)-2′-methylbiphenyl-3-ylcarbamoyl)-1-methyl-6,7-dihydro-1H-imidazo [4,5-c]pyridin-5 (4H)-yl)methyl)cyclohexane-1-carboxylic acid], the concentration for half-maximal inhibition (IC50) was less than 10 nM in test [1], less than 10 nM in test [2] and less than 100 nM in test [3]. Further, in test [4], the EC50 is less than 100 nM.
`CCN(C)CC(=O)N1Cc2nc(-c3cccc(-c4cccc(NC(=O)c5nc6c(n5C)CCN(CCC5CCC(C(=O)O)CC5)C6)c4Cl)c3C)sc2C1` (centres unmarked) [Compound 22, 4-(2-(2-(2-chloro-3′-(5-(2-(ethyl(methyl)amino)acetyl)-5,6-dihydro-4H-pyrrolo[3,4-d]thiazol-2-yl)-2′-methylbiphenyl-3-ylcarbamoyl)-1-methyl-6,7-dihydro-1H-imidazo[4,5-c]pyridin-5(4H)-yl)ethyl)cyclohexane-1-carboxylic acid]: the figures for the IC50 in test [1], in test [2] and in test [3] were less than 10 nM, less than 10 nM and less than 500 nM, respectively. In test [4], the EC50 is less than 100 nM.
Take `Cc1c(-c2nc3c(s2)CN(C(=O)CN(C)C(C)C)C3)cccc1-c1cccc(NC(=O)c2nc3c(n2C)CCN(CCC2CCC(C(=O)O)CC2)C3)c1Cl` (centres unmarked) [Compound 23, 4-(2-(2-(2-chloro-3′-(5-(2-(isopropyl(methyl)amino)acetyl)-5,6-dihydro-4H-pyrrolo[3,4-d]thiazol-2-yl)-2′-methylbiphenyl-3-ylcarbamoyl)-1-methyl-6,7-dihydro-1H-imidazo[4,5-c]pyridin-5(4H)-yl)ethyl)cyclohexane-1-carboxylic acid]: the IC50 in test [1] was less than 10 nM; in test [2], less than 10 nM; in test [3], less than 100 nM. Also, the EC50 in test [4] was less than 100 nM.
Consider `C[C@@H](O)CN1CCc2c(nc(C(=O)Nc3cccc(-c4cccc(NC(=O)c5nc6c(n5C)CCN(CCC57CCC(C(=O)O)(CC5)C7)C6)c4Cl)c3Cl)n2C)C1` [Compound 29], for which the half-inhibitory concentration (IC50) in test [1] was less than 10 nM; in test [2] it was less than 10 nM; in test [3] it was less than 100 nM. Moreover, the 50% effective concentration (EC50) in test [4] is less than 10 nM.
As for `Cn1c(C(=O)Nc2cccc(-c3cccc(NC(=O)c4nc5c(n4C)CCN(CC46CCC(C(=O)O)(CC4)C6)C5)c3Cl)c2Cl)nc2c1CCN(CCC13CCC(C(=O)O)(CC1)C3)C2` [Compound 31, 4-((2-((3′-(5-(2-(4-carboxybicyclo[2.2.1]heptan-1-yl)ethyl)-1-methyl-4,5,6,7-tetrahydro-1H-imidazo[4,5-c]pyridine-2-carboxamido)-2,2′-dichloro-[1,1′-biphenyl]-3-yl)carbamoyl)-1-methyl-1,4,6,7-tetrahydro-5H-imidazo[4,5-c]pyridin-5-yl)methyl)bicyclo[2.2.1]heptane-1-carboxylic acid], the IC50 was less than 10 nM in test [1], less than 10 nM in test [2] and less than 100 nM in test [3]. Further, in test [4], the EC50 is less than 100 nM.
